Source: ChEMBL document CHEMBL4507300 (2021)

What was measured:
[1] = biological target: Serine/threonine-protein kinase Nek4 (Homo sapiens) (UniProt P51957); conditions: Compound concentration 1000.0 nM
[2] = biological target: Macrophage-stimulating protein receptor (Homo sapiens) (UniProt Q04912); conditions: Compound concentration 1000.0 nM
[3] = biological target: Serine/threonine-protein kinase Nek9 (Homo sapiens) (UniProt Q8TD19); conditions: Compound concentration 1000.0 nM
[4] = biological target: Serine/threonine-protein kinase Nek3 (Homo sapiens) (UniProt P51956); conditions: Compound concentration 1000.0 nM
[5] = biological target: Mitogen-activated protein kinase kinase kinase 3 (Homo sapiens) (UniProt Q99759); conditions: Compound concentration 1000.0 nM
[6] = biological target: Cytoplasmic tyrosine-protein kinase BMX (Homo sapiens) (UniProt P51813); conditions: Compound concentration 1000.0 nM
[7] = biological target: Serine/threonine-protein kinase SBK1 (Homo sapiens) (UniProt Q52WX2); conditions: Compound concentration 1000.0 nM
[8] = system: Receptor-type tyrosine-protein kinase FLT3 (Homo sapiens), P36888 [UNDEFINED MUTATION]; conditions: Compound concentration 1000.0 nM
[9] = biological target: Serine/threonine-protein kinase LATS1 (Homo sapiens) (UniProt O95835); conditions: Compound concentration 1000.0 nM
[10] = biological target: Mitogen-activated protein kinase 11 (Homo sapiens) (UniProt Q15759); conditions: Compound concentration 1000.0 nM
Histamine H1 receptor = Histamine H1 receptor (Homo sapiens, UniProt P35367); conditions: Compound concentration 10.0 uM
[11] = biological target: Tyrosine-protein kinase receptor UFO (Homo sapiens) (UniProt P30530); conditions: Compound concentration 1000.0 nM
[12] = system: Phosphatidylinositol 4,5-bisphosphate 3-kinase catalytic subunit alpha isoform (Homo sapiens), P42336 [E545A]; conditions: Compound concentration 1000.0 nM
[13] = biological target: Serine/threonine-protein kinase DCLK2 (Homo sapiens) (UniProt Q8N568); conditions: Compound concentration 1000.0 nM
[14] = biological target: Sodium-dependent dopamine transporter (Homo sapiens) (UniProt Q01959); conditions: Compound concentration 10.0 uM
[15] = biological target: BMP-2-inducible protein kinase (Homo sapiens) (UniProt Q9NSY1); conditions: Compound concentration 1000.0 nM
[16] = biological target: Ephrin type-B receptor 2 (Homo sapiens) (UniProt P29323); conditions: Compound concentration 1000.0 nM
[17] = biological target: BDNF/NT-3 growth factors receptor (Homo sapiens) (UniProt Q16620); conditions: Compound concentration 1000.0 nM
[18] = biological target: Serine/threonine-protein kinase pim-2 (Homo sapiens) (UniProt Q9P1W9); conditions: Compound concentration 1000.0 nM
[19] = biological target: Serine/threonine-protein kinase D2 (Homo sapiens) (UniProt Q9BZL6); conditions: Compound concentration 1000.0 nM
[20] = biological target: RAC-beta serine/threonine-protein kinase (Homo sapiens) (UniProt P31751); conditions: Compound concentration 1000.0 nM
[21] = biological target: Tyrosine-protein kinase ZAP-70 (Homo sapiens) (UniProt P43403); conditions: Compound concentration 1000.0 nM
[22] = biological target: Serine/threonine-protein kinase 32C (Homo sapiens) (UniProt Q86UX6); conditions: Compound concentration 1000.0 nM
[23] = biological target: Mitogen-activated protein kinase kinase kinase 4 (Homo sapiens) (UniProt Q9Y6R4); conditions: Compound concentration 1000.0 nM
[24] = biological target: Tyrosine-protein kinase receptor TYRO3 (Homo sapiens) (UniProt Q06418); conditions: Compound concentration 1000.0 nM
[25] = biological target: NUAK family SNF1-like kinase 1 (Homo sapiens) (UniProt O60285); conditions: Compound concentration 1000.0 nM
[26] = biological target: Calcium/calmodulin-dependent protein kinase kinase 2 (Homo sapiens) (UniProt Q96RR4); conditions: Compound concentration 1000.0 nM
[27] = biological target: Serine/threonine-protein kinase TAO2 (Homo sapiens) (UniProt Q9UL54); conditions: Compound concentration 1000.0 nM
[28] = biological target: Homeodomain-interacting protein kinase 3 (Homo sapiens) (UniProt Q9H422); conditions: Compound concentration 1000.0 nM
[29] = biological target: Cyclin-dependent kinase-like 3 (Homo sapiens) (UniProt Q8IVW4); conditions: Compound concentration 1000.0 nM
[30] = biological target: Serine/threonine-protein kinase BRSK2 (Homo sapiens) (UniProt Q8IWQ3); conditions: Compound concentration 1000.0 nM
[31] = biological target: Non-receptor tyrosine-protein kinase TYK2 (Homo sapiens) (UniProt P29597); conditions: Compound concentration 1000.0 nM
[32] = biological target: Testis-specific serine/threonine-protein kinase 1 (Homo sapiens) (UniProt Q9BXA7); conditions: Compound concentration 1000.0 nM
[33] = biological target: Phosphatidylinositol 3-kinase catalytic subunit type 3 (Homo sapiens) (UniProt Q8NEB9); conditions: Compound concentration 1000.0 nM
[34] = biological target: Macrophage colony-stimulating factor 1 receptor (Homo sapiens) (UniProt P07333); conditions: Compound concentration 1000.0 nM
[35] = biological target: Mitogen-activated protein kinase 13 (Homo sapiens) (UniProt O15264); conditions: Compound concentration 1000.0 nM
[36] = biological target: Membrane-associated tyrosine- and threonine-specific cdc2-inhibitory kinase (Homo sapiens) (UniProt Q99640); conditions: Compound concentration 1000.0 nM
[37] = biological target: D(4) dopamine receptor (Homo sapiens) (UniProt P21917); conditions: Compound concentration 10.0 uM
[38] = biological target: Cyclin-dependent kinase-like 5 (Homo sapiens) (UniProt O76039); conditions: Compound concentration 1000.0 nM
[39] = system: Tyrosine-protein kinase ABL1 (Homo sapiens), P00519 [Y253F]; conditions: Compound concentration 1000.0 nM
[40] = biological target: Serine/threonine-protein kinase PRP4 homolog (Homo sapiens) (UniProt Q13523); conditions: Compound concentration 1000.0 nM
[41] = biological target: Insulin receptor (Homo sapiens) (UniProt P06213); conditions: Compound concentration 1000.0 nM
[42] = biological target: Casein kinase II subunit alpha (Homo sapiens) (UniProt P68400); conditions: Compound concentration 1000.0 nM
Rattus norvegicus = organism: Rattus norvegicus; conditions: Compound concentration 10.0 uM
[43] = biological target: Cyclin-dependent kinase 14 (Homo sapiens) (UniProt O94921); conditions: Compound concentration 1000.0 nM

Sequence of Mitogen-activated protein kinase kinase kinase 3 (Homo sapiens) (Q99759 whole entry): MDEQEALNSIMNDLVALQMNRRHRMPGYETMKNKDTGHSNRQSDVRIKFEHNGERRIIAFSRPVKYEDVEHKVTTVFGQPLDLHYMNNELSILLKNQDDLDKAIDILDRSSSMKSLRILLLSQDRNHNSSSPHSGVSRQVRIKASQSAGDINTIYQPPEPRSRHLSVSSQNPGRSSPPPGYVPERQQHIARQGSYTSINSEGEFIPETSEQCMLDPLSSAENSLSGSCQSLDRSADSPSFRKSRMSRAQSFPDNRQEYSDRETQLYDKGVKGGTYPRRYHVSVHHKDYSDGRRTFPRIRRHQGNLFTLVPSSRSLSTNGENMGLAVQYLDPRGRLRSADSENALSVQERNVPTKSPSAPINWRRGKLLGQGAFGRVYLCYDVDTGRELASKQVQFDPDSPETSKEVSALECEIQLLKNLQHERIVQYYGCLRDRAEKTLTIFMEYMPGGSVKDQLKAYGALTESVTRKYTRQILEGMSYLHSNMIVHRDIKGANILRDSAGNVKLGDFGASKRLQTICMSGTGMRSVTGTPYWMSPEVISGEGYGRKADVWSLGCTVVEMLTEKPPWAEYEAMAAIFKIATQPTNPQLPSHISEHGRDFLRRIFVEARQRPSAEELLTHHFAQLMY
Sequence of Serine/threonine-protein kinase SBK1 (Homo sapiens) (Q52WX2 whole entry): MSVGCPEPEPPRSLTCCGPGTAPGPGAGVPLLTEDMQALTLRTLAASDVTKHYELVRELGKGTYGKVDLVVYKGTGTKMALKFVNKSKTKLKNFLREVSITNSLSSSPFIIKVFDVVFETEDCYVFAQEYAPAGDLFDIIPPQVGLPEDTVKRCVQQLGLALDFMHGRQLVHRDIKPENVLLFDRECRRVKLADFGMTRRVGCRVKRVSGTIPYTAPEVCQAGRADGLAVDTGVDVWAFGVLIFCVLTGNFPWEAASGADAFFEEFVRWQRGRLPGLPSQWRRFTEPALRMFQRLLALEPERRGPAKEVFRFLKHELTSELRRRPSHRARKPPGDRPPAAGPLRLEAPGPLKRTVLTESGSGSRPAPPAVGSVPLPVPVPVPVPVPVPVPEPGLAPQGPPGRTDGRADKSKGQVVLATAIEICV
Sequence of D(4) dopamine receptor (Homo sapiens) (P21917 whole entry): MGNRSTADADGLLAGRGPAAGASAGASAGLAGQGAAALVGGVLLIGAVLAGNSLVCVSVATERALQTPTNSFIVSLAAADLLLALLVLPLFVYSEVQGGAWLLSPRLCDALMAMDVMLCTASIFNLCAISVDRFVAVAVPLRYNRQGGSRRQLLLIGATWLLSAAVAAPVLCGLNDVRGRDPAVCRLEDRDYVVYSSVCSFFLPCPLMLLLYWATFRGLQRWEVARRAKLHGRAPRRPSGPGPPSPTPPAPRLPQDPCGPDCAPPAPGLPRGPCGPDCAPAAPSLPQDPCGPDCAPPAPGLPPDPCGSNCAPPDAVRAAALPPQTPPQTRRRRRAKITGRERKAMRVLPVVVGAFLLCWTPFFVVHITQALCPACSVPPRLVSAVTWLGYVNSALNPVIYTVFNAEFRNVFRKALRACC
Sequence of Testis-specific serine/threonine-protein kinase 1 (Homo sapiens) (Q9BXA7 whole entry): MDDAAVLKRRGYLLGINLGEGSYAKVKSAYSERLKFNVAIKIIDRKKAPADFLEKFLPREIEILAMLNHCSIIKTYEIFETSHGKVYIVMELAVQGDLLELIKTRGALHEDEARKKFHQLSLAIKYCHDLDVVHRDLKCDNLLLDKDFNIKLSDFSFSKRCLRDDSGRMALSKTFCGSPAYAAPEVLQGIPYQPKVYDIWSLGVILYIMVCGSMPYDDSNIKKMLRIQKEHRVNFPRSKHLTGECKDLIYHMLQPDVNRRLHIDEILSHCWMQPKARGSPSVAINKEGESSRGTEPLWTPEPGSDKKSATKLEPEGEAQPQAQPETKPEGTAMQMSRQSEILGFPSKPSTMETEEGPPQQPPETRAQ
Sequence of Ephrin type-B receptor 2 (Homo sapiens) (P29323 whole entry): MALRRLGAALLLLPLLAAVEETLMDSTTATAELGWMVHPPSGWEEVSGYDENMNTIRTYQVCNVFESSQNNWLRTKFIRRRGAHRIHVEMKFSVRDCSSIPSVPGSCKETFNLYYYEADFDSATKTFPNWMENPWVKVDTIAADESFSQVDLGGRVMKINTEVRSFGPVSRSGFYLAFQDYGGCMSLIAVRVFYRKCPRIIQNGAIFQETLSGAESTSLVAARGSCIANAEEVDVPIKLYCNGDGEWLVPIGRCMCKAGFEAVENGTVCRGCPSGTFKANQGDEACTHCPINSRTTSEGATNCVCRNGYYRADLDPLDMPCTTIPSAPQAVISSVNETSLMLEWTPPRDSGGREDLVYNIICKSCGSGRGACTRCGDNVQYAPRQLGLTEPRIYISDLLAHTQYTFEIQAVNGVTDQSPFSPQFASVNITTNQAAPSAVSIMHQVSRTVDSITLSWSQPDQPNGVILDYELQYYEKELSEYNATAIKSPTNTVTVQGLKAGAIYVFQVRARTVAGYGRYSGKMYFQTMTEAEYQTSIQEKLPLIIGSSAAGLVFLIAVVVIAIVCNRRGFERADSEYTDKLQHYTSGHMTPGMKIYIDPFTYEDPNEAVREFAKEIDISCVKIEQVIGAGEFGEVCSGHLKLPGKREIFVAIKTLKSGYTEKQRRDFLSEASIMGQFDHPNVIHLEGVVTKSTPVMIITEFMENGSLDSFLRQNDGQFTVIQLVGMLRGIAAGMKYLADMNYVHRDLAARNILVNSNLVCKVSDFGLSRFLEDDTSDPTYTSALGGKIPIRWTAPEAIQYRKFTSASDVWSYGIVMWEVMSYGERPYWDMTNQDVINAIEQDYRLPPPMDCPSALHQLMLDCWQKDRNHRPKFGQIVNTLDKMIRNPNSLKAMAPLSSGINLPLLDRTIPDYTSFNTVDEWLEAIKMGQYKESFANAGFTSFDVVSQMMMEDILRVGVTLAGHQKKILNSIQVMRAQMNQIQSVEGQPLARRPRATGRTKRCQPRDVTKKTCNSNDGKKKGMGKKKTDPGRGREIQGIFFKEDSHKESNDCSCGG
Sequence of Membrane-associated tyrosine- and threonine-specific cdc2-inhibitory kinase (Homo sapiens) (Q99640 whole entry): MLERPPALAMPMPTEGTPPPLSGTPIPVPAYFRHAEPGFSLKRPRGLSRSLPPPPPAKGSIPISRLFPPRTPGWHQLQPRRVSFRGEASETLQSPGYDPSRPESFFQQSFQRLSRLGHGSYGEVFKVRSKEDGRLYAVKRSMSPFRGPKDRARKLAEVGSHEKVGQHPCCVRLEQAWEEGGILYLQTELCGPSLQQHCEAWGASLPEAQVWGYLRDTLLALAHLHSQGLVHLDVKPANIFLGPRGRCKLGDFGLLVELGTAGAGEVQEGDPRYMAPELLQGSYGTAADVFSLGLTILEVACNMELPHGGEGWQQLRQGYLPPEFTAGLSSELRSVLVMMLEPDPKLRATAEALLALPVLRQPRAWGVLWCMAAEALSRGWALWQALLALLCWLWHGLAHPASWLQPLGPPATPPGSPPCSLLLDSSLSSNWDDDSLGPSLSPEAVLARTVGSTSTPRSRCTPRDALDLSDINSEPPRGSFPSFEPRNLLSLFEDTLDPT
Sequence of Serine/threonine-protein kinase Nek9 (Homo sapiens) (Q8TD19 whole entry): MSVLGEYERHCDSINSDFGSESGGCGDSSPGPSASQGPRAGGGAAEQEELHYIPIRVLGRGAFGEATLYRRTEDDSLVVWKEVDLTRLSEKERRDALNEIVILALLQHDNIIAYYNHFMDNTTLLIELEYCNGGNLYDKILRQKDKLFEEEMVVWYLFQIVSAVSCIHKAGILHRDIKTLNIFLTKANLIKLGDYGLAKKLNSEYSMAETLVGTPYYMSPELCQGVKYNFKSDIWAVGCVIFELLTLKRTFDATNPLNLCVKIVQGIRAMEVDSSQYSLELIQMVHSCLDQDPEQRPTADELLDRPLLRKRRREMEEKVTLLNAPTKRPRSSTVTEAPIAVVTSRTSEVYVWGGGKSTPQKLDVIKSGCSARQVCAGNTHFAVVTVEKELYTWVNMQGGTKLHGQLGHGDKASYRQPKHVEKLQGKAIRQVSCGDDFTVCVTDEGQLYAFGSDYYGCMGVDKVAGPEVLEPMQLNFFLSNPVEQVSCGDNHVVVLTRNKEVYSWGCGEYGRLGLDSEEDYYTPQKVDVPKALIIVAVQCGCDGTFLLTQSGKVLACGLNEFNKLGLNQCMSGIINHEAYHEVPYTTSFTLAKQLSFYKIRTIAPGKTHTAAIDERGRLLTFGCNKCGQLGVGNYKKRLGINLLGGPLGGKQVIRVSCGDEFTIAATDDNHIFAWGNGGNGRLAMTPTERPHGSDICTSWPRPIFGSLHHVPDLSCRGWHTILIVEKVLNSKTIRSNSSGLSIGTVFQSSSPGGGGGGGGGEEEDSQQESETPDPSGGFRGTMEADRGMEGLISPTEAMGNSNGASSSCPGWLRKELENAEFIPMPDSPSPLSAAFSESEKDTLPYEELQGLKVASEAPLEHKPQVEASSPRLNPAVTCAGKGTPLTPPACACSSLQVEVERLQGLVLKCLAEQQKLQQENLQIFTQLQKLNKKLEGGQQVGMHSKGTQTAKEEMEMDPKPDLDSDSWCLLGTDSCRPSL
Sequence of Tyrosine-protein kinase ZAP-70 (Homo sapiens) (P43403 whole entry): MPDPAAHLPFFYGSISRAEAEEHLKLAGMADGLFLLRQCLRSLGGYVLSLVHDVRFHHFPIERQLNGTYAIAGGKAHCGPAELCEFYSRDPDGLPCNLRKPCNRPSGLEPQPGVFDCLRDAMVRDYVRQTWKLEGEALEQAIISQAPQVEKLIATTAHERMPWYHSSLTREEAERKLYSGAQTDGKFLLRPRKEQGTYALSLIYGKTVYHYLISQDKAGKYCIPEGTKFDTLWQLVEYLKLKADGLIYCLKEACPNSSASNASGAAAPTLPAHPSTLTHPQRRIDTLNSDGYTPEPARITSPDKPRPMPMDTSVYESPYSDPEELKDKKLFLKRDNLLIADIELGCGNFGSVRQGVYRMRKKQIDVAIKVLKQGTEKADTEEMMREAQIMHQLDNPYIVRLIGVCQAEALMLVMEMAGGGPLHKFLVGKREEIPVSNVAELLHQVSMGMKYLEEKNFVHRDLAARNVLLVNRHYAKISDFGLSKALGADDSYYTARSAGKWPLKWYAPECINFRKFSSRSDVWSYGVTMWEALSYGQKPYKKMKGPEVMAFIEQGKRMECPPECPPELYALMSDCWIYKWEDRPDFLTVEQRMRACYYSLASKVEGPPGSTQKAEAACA

Structure (SMILES): COc1cccc(CNC(=O)c2nc3scc(COCc4ccc(C(=O)O)cc4)c3c(=O)[nH]2)c1 [T-26c]
- residual activity [1]: 83.8%
- residual activity [2]: 81.9%
- residual activity [3]: 98.2%
- residual activity [4]: 78.1%
- residual activity [5]: 78.9%
- residual activity [6]: 100%
- residual activity [7]: 53.7%
- residual activity [8]: 63%
- residual activity [9]: 100%
- residual activity [10]: 100%
- inhibition (Histamine H1 receptor): 50.2%
- residual activity [11]: 84.2%
- residual activity [12]: 89.2%
- residual activity [13]: 100%
- inhibition [14]: 9.28%
- residual activity [15]: 92.3%
- residual activity [16]: 95.7%
- residual activity [17]: 67.1%
- residual activity [18]: 100%
- residual activity [19]: 100%
- residual activity [20]: 93.3%
- residual activity [21]: 67.1%
- residual activity [22]: 89.6%
- residual activity [23]: 86.6%
- residual activity [24]: 100%
- residual activity [25]: 86.6%
- residual activity [26]: 100%
- residual activity [27]: 59.8%
- residual activity [28]: 73.7%
- residual activity [29]: 100%
- residual activity [30]: 77.3%
- residual activity [31]: 79.8%
- residual activity [32]: 88.2%
- residual activity [33]: 58.6%
- residual activity [34]: 100%
- residual activity [35]: 100%
- residual activity [36]: 88%
- inhibition [37]: 13.9%
- residual activity [38]: 89.5%
- residual activity [39]: 84.6%
- residual activity [40]: 97.3%
- residual activity [41]: 76.2%
- residual activity [42]: 90.7%
- inhibition (Rattus norvegicus): 3.29%
- residual activity [43]: 100%
